Source: paper PMC7568570, “Resensitizing carbapenem- and colistin-resistant bacteria to antibiotics using auranofin” (Nature Communications, 2020)

Biological target: T1, MCR-1 (Escherichia coli, UniProt A0A0R6L508)
T1 construct: gene mcr1; MCR-1-S, soluble periplasmic domain, residues 201-541 (200-541aa in Methods)
Experiment: equilibrium dialysis with ICP-MS (Kd); crystal structure by soaking at […] Å; TLC cleavage inhibition of full-length MCR-1
Type: binding

T1 sequence (A0A0R6L508 201-541): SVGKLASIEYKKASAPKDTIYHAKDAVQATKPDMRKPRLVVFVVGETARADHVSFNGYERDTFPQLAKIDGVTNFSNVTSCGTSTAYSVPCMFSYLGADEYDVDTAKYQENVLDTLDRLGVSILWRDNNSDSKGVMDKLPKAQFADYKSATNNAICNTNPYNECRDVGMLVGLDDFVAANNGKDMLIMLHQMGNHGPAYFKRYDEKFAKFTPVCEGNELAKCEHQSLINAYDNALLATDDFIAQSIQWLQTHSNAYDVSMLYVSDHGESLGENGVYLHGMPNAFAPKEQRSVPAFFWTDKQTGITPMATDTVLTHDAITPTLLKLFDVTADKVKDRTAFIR

SMILES: CC[P+](CC)(CC)[Au-][Cl] [Au(PEt3)Cl, chloro(triethylphosphine)gold(I)]
- Kd: 3.36 ± 0.38 µM
